# In patent publication US7129073B2, “Regulation of neuronal function through metabotropic glutamate receptor signaling pathways” (The Rockefeller University, priority 2001, dated 2006):
# “Also recorded” adds a separate entry of the source.
# Assays:
# [1] = tested on: Thr75 of DARPP-32 (Cdk5 site); test: DARPP-32 phospho-Thr75 immunoblot in neostriatal slices; type: cell-based, mouse
# Experimental: (§1) Neostriatal slices were prepared from male C57/BL6 mice (6–8 weeks old) in accordance with methods known in the art (Nishi, A. et al. 1997, J. Neurosci. 17:8147–8155). Slices were treated with a drug. After drug treatment, slices were immediately frozen in liquid nitrogen, and stored at −80° C. until assayed.
# Frozen slices were sonicated in hot homogenization buffer containing 1% SDS and 50 mM NaF, and samples were boiled for 10 minutes. SDS-PAGE sample buffer was then added and samples were boiled for 5 minutes. Samples (approximately 120 μg of total protein) were separated by SDS-PAGE (10% polyacrylamide) and then transferred to nitrocellulose. In most studies, immunoblots were first probed with anti-phospho-Ser137 DARPP-32 antibody. The blots were then stripped and probed with anti-phospho-Thr75 DARPP-32 antibody. Blots were stripped again and probed with anti-total DARPP-32 antibody. […] Chemiluminescence was detected by autoradiography and bands were quantified by analysis of scanned images using NIH IMAGE 1.52 software. Data were statistically analyzed by Student's t test in Microsoft EXCEL™ software as indicated.
# Neostriatal slices were prepared from male C57/BL6 mice (6–8 weeks old) as disclosed (22). Slices were treated with drugs as specified in the text and figure legends. After drug treatment, slices were immediately frozen in liquid nitrogen, and stored at −80° C. until assayed.
# Frozen slices were sonicated in hot homogenization buffer containing 1% SDS and 50 mM NaF, and samples were boiled for 10 min. SDS-PAGE sample buffer was then added and samples were boiled for 5 min. Samples (approximately 120 μg protein) were separated by SDS-PAGE (10% polyacrylamide) and transferred to nitrocellulose. Immunoblots were first probed with antiphospho-Ser-137 DARPP-32 antibody. The blots were stripped and probed with anti-phosphoThr-75 DARPP-32 antibody. Blots were stripped again and probed with anti-total DARPP-32 antibody. Antibody binding was detected by enhanced chemiluminescence (ECL) using X-ray film, and images were analyzed by laser scanning densitometry using NIH Image 1.52 software. Data were statistically analyzed by Student's t-test using Microsoft EXCEL™ software as indicated.
# Cdk5 = Cdk5 kinase activity immunoprecipitated from neostriatal slices, histone H-1 as substrate; type: cell-based, mouse
# Experimental: as §1
# For Cdk5 immunoprecipitation, striatal tissue slices (approximately 150 μg total protein) were lysed using a Dounce homogenizer and 1 ml of lysis buffer (150 mM NaCl, 20 mM Tris-HCl (pH 7.4), 1 mM EDTA, 0.5% NP-40, 5 mM NaF, 5 mM Na3PO4 and protease inhibitors). Lysates were centrifuged at 10,000 g for 10 minutes at 4° C. Supernatants were pre-cleared by adding rabbit IgG-conjugated agarose for 40 minutes at 4° C. Ten μl of Cdk5 antibody conjugated to agarose were added and samples were incubated for 1 hour at 4° C. with mixing. Agarose pellets were collected and washed three times with 1 ml of lysis buffer and two times with kinase assay buffer (50 mM Hepes (pH 7.5), 10 mM MgCl2, 1 mM DTT). Cdk5 kinase assays were performed in a 30-μl reaction mixtures with 2 μg Histone H-1, 500 μM ATP and 5 μCi of γ-^32P-ATP. Samples were incubated at 30° C. for 10 minutes, reactions were stopped by addition of SDS-sample buffer, and samples were boiled for 5 minutes. Samples were separated by SDS-PAGE and analyzed as disclosed above for CKI assays. Data were analyzed by Student's t-test in Microsoft Excel software as indicated, with significance defined as p<0.05.
# CK1 assays were performed in a 30 μl assay volume with 2 μg of purified DARPP-32, 500 μM ATP and 5 μCi γ-^32P-ATP. Reactions were started by addition of the ATP. Samples were incubated at 30° C. for 10 min and reactions were stopped by addition of SDS-sample buffer and boiled for 5 min. Samples were separated by SDS-PAGE (12% polyacrylamide). SDS-PAGE gels were dried and exposed to Kodak film for autoradiography. Results were quantified using a Molecular Dynamics PHOSPHORIMAGER™. Immunoprecipitation and assay of Cdk5 were performed as disclosed (20).
"effect of pretreatment on the effect of DHPG on Cdk5 kinase activity (Cdk5; CKI-7 dose-dependent, U73122 10 μM, BAPTA/AM 20 μM, cyclosporin A 5 μM)",Compound,"effect on basal or DHPG-stimulated DARPP-32 phosphorylation at Thr75 ([1]; 50 μM CKI-7, 30 min before DHPG 2 min)","effect on basal and DHPG-stimulated DARPP-32 phosphorylation at Thr75 ([1]; CKI-7 100 to 300 μM, 30 min before DHPG 2 min)","increase in phosphorylation of Thr75 ([1]; DHPG 100 μM, group I mGluR activation)","effect on phosphorylation of Thr75 in DARPP-32 ([1]; slices treated with drug alone: DHPG 100 μM, ionomycin 2 μM)",effect on Cdk5 kinase activity (Cdk5; DHPG treatment of slices),"increase in Cdk5 activity (Cdk5; DHPG, after 2 minutes, back to basal level after 5 minutes)"
attenuated,NCCNS(=O)(=O)c1ccc(Cl)c2ccncc12 [CKI-7],little effect,dose-dependent decreases,,,,
,"N[C@H](C(=O)O)c1cc(O)cc(O)c1 [DHPG, (S)-3,5-Dihydroxyphenylglycine]",,,2–3 fold,rapid but transient increase,rapid but transient increase; also recorded: increased,approximately 4 fold
